Test results as given in patent publication US5843917A, “5-Fluorouracil derivatives” (priority 1993, dated 1998).
Like-named read-outs stand apart in the source and are kept apart here.

How the values were obtained:
uracil reductase = conditions: cited from earlier work
DPD = assay: Protection of 5-FU from DPD catabolism by release of 5-EU from nucleosides (urinary recovery of 5-FU in rats); format: in vivo; conditions: rat; oral predose 0.03, 0.3 and 3.0 mg/kg, then 25 mg/kg 5-FU
Description: 5-FU and 5-EU bases and nucleosides were dissolved in deionized HPLC grade water immediately prior to dosing. […] 5-EU and 5-EU nucleosides were dosed to animals 0.5 hr prior to dosing with 5-FU and 5-FU nucleosides. Dosing was routinely performed between 11 am and 1 pm. An approximate volume of 300 μL was used for each dose. Rats were placed in individual Nalge metabolism cages, which separate urine and faeces, and continued on a 12 hr light/dark schedule post-dosing.
5 ml of a thoroughly mixed urine sample was filtered through a Millex GS 0.22 μm filter (Millipore, Bedford, Mass.) and frozen prior to HPLC analysis. 1 ml of the thawed primary filtered solution was diluted with 2 ml of water and particulates were removed from this diluted stock solution using a Centrifree micro partition system (Amicon Division, W. R. Grace and Co., Beverly Mass.). […]

[1] = literature reports; combination with 5-fluorouracil or its prodrug; cited from earlier work
[2] = Urinary recovery of 5-FU in rats for 5-FU and various 5-FU containing nucleosides; format: in vivo; conditions: rat, urine, po, p.o., read-out: % 5-FU Recovery 0-24 hr Urine (Average of Two Experiments)
Description: (§1) 5-FU and 5-EU bases and nucleosides were dissolved in deionized HPLC grade water immediately prior to dosing. All animals were dosed once, p.o. via gastric gavage at the indicated mg/kg dose for each compound (See Results Section and Figures). 5-EU and 5-EU nucleosides were dosed to animals 0.5 hr prior to dosing with 5-FU and 5-FU nucleosides. Dosing was routinely performed between 11 am and 1 pm. An approximate volume of 300 μL was used for each dose. Rats were placed in individual Nalge metabolism cages, which separate urine and faeces, and continued on a 12 hr light/dark schedule post-dosing. Mice were treated post-dose in a similar manner with the exception that 5 mice were housed per cage.
(§2) Urine from each cage was collected into 0-24 hr and 24-48 hr post-dose fractions. Cages were rinsed with deionized water prior to collection of each fraction. The combined volume of urine and rinse was brought to a standard volume with deionized water.
5 ml of a thoroughly mixed urine sample was filtered through a Millex GS 0.22 μm filter (Millipore, Bedford, Mass.) and frozen prior to HPLC analysis. […] 100 μL of this solution was quantitated for 5-FU by HPLC on a Waters Associates System (Waters Associates, Milford, Mass.) equipped with a Waters 600E system controller, a Waters 600 solvent delivery system, a Waters model 712 WISP automated sample injector, a Waters 484 tuneable absorbance detector, and a Waters 991 photodiode array detector. For quantitiation of 5-FU in rat urine, HPLC was performed on a 250 mm×4.6 mm YMC AQ-303 S-5 120A ODS analytical column (YMC, Morris Plains, N.J.) or on a Microsorb C18 analytical column with identical dimensions (Rainin Instrument Co., Woburn, Mass.). […]
Plots of UV peak area vs 5-FU concentration were linear between 5 μM and 100 μM. The total urinary recovery of 5-FU was determined by multiplication of the nmoles of 5-FU determined from the standard curve by the dilution factor of 3 (above) and by the standard volume of urine collected. […]

Colon 38 = assay: In vivo antitumor testing with s.c. murine Colon 38 carcinoma in C57BL/6 female mice
Description: (§3) In vivo antitumor testing with murine Colon 38 was conducted in-house. C57BL/6 female mice were housed in sterile, polycarbonate, filter-capped Microisolator cages (Lab Products, Inc., Maywood, N.J.) containing sterile hardwood bedding. Mice were fed sterile rodent chow and filter-sterilised water ad libitum. All manipulations of these mice were conducted in laminar-flow biosafety hoods. Colon 38 carcinoma was obtained from the Development Therapeutics Program Tumour Repository. Mice were implanted s.c. with 70 mg tumour fragments using a number 13 trocar. There were 10 mice in the control group that received tumour implants without drug treatment. There were 5 mice in each group treated with the dose and compounds as described below. Treatment began on day 16 post tumour implant and compounds were dosed once/day for 9 days. 5-FU was dosed at 15, 20, 25, 30, and 40 mg/kg.. […] Tumour weights were calculated three times per week from measurements of tumour length and width. Antitumor activity was expressed as the days delay in tumour growth (T-C). T-C was calculated as the difference in the median of days for treated animals minus control animals for tumour mass to double twice post initial day of dosing (Day 16). Tumour-free survivors were not excluded from T-C calculations. Surviving mice were sacrificed after day 56.

[3] = Urinary recovery of 5-FU in mice dosed with 5-FU or the succinate linked nucleoside; format: in vivo; conditions: mouse; for dose excreted: urine, po, 5 mg/kg
Description: as §1, §2
5-FU recovery in mouse urine was determined as above with three exceptions: a Phenomenex 5 μm Extrasil C-18 column (250mm×4.6 mm i.d.; Phenomenex, Torrance, Calif.) was used; an identical gradient with buffer A as aqueous 50 mM formic acid, pH 3.5, with 0.5% acetonitrile and buffer B as aqueous 50 mM formic acid, pH 3.5, with 60% acetonitrile was used; the standard curve was prepared by diluting known concentrations of 5-FU into undosed mouse urine and eluting with the latter described gradient and buffers, instead of isocratic conditions.
For these studies mice were dosed with either 5 mg/kg 5-FU or given an equivalent dose of 5-FU via the succinate linked nucleoside. The urinary recovery of 5-FU was measured in the presence and absence of 5-EU (Table 2). […] When mice were predosed with 5-EU followed by dosing with 5-FU, the urinary recovery of 5-FU was 50%. Mice dosed with the succinate linked nucleoside gave 25-30% urinary recovery of 5-FU available from the linked compound.

[4] = Urinary recovery of 5-FU in rats dosed with the succinate linked nucleoside; format: in vivo; conditions: rat; 25 mg/kg 5-FU equivalent
Description: as §1
Urine from each cage was collected into 0-24 hr and 24-48 hr post-dose fractions. […]
5 ml of a thoroughly mixed urine sample was filtered through a Millex GS 0.22 μm filter (Millipore, Bedford, Mass.) and frozen prior to HPLC analysis. […] 100 μL of this solution was quantitated for 5-FU by HPLC on a Waters Associates System (Waters Associates, Milford, Mass.) equipped with a Waters 600E system controller, a Waters 600 solvent delivery system, a Waters model 712 WISP automated sample injector, a Waters 484 tuneable absorbance detector, and a Waters 991 photodiode array detector. […]
Rats were dosed 25 mg/kg 5-FU equivalent with the succinate linked nucleosides. […] 5-FU was not detected in the 24-48 hr urine.

[5] = In vivo antitumor testing with s.c. murine Colon 38 carcinoma in C57BL/6 female mice; conditions: mouse, in vivo, sc, mice with s.c. Colon 38
Description: as §3

**Q.** With `C#Cc1c[nH]c(=O)[nH]c1=O` [Example 5-EU, 5-ethynyluracil] as the compound, how does the “potency as an inactivator of uracil reductase relative to BVU” value (uracil reductase; relative to BVU) read?
**A.** 100 fold

**Q.** For `C#Cc1cn([C@@H]2O[C@H](CO)[C@@H](O)[C@@H]2O)c(=O)[nH]c1=O` [arabinoside of 5-EU], which “dose response for urinary recovery of 5-FU” value (DPD) is on record?
**A.** A direct dose response for urinary recovery of 5-FU was observed

**Q.** What does the source list for `O=c1[nH]cc(C=CBr)c(=O)[nH]1` [5-(2-bromovinyl)-uracil (BVU), 5-(2-bromovinyl)-uracil]?
**A.** inhibition of dihydrothymidine dehydrogenase (uracil reductase; Cancer Research 46, 1094, 1986): is an inhibitor of dihydrothymidine dehydrogenase; effect on 5-fluorouracil metabolism and antitumour activity [1]: retards the metabolism of 5-fluorouracil and enhances its antitumour activity

**Q.** For `C#Cc1cn([C@H]2C[C@H](O)[C@@H](COP(=O)(O)O)O2)c(=O)[nH]c1=O` [2'-deoxy-5'-monophosphate of 5-EU, 1-(2-Deoxy-β-D-Erythro-Pentofuranosyl)-5-Ethynyluracil 5'-Monophosphate], which “dose response for urinary recovery of 5-FU” value (DPD) is on record?
**A.** A direct dose response for urinary recovery of 5-FU was observed

**Q.** With `O=c1[nH]c(=O)n([C@H]2C[C@H](O)[C@@H](CO)O2)cc1C=CBr` [5-(2-bromovinyl)-2'-deoxyuridine] as the compound, how does the “effect on 5-fluorouracil metabolism and antitumour activity” value [1] read?
**A.** enhances the antitumour activity of 5-fluorouracil and 5-deoxy-5-fluorouridine

**Q.** With `O=c1[nH]cc(F)c(=O)[nH]1` [Example 5-FU, 5-fluorouracil] as the compound, how does the dose excreted at 24 h ([2]; 5 mg/kg, 5-FU 5 mg/kg, 5-EU predose 2 mg/kg) read?
**A.** 52%

**Q.** And the dose excreted at 24 h ([2]; 5 mg/kg, 5-FU 5 mg/kg, no predose)?
**A.** < 5%

**Q.** And the dose excreted at 24 h ([2]; 25 mg/kg, 5-FU 25 mg/kg, 5-EU predose 0.03 mg/kg)?
**A.** 43 to 63%

**Q.** And the “Tumour-free Survivors (Day 56)” value (Colon 38; 25 mg/kg 5-FU equivalent)?
**A.** 0/5

**Q.** And the “Antitumour Activity T-C” value (Colon 38; 25 mg/kg 5-FU equivalent, once/day for 9 days)?
**A.** 14.9 days

**Q.** What about the “Tumour-free Survivors (Day 56)” value (Colon 38; 30 mg/kg 5-FU equivalent) of the same compound?
**A.** 0/5

**Q.** What about the “Antitumour Activity T-C” value (Colon 38; 30 mg/kg 5-FU equivalent, once/day for 9 days) of the same compound?
**A.** 23.6 days

**Q.** And the “Tumour-free Survivors (Day 56)” value (Colon 38; 40 mg/kg 5-FU equivalent)?
**A.** 0/5

**Q.** And the “Antitumour Activity T-C (column entry Toxic)” value (Colon 38; 40 mg/kg 5-FU equivalent, once/day for 9 days)?
**A.** Toxic

**Q.** And the dose excreted ([3]; 5 mg/kg 5-FU, predosed with 5-EU, read-out: urinary recovery of 5-FU)?
**A.** 50%

**Q.** And the dose excreted ([3]; 5 mg/kg equivalent 5-FU, 5-EU predose 2 mg/kg, Table 2, read-out: Recovery 5-FU (%))?
**A.** 51%

**Q.** What about the dose excreted ([3]; 5 mg/kg equivalent 5-FU, no predose, Table 2, read-out: Recovery 5-FU (%)) of the same compound?
**A.** 0%

**Q.** What about the “5-FU detection in the urine” value ([3]; 5 mg/kg 5-FU, without 5-EU predose) of the same compound?
**A.** could not be detected

**Q.** For `C#Cc1cn([C@H]2C[C@H](OC(=O)CCC(=O)O[C@H]3C[C@H](n4cc(F)c(=O)[nH]c4=O)O[C@@H]3CO)[C@@H](CO)O2)c(=O)[nH]c1=O` [Example 1, 5-Ethynyl-5"-fluoro-3',3"-O-succinylbis-(1-(2-deoxy-β-D-erythro-pentofuranosyl)uracil)], which “5-FU in the 24-48 hr urine” value [4] is on record?
**A.** not detected

**Q.** What about the “Tumour-free Survivors (Day 56)” value (Colon 38; 1 mg/kg 5-FU equivalent) of the same compound?
**A.** 0/5

**Q.** What about the “Antitumour Activity T-C” value (Colon 38; 1 mg/kg 5-FU equivalent, once/day for 9 days) of the same compound?
**A.** 12.9 days

**Q.** What about the “Tumour-free Survivors (Day 56)” value (Colon 38; 2 mg/kg 5-FU equivalent) of the same compound?
**A.** 2/5

**Q.** What about the “Antitumour Activity T-C” value (Colon 38; 2 mg/kg 5-FU equivalent, once/day for 9 days) of the same compound?
**A.** > 27.9 days

**Q.** And the MTD ([5]; 5-FU and 5-EU equivalents, read-out: toxic at doses, as 5-FU and 5-EU equivalents)?
**A.** > 4 mg/kg

**Q.** What about the MTD ([5]; dose of the linked compound, once/day for 9 days, read-out: toxic at doses) of the same compound?
**A.** > 17.9 mg/kg

**Q.** And the “improvement of 5-FU urinary recovery by 5-EU predose” value ([3]; predosed with 5-EU then succinate linked nucleoside)?
**A.** no improvement
